Laboratory results published in ChEMBL document CHEMBL5291721, “A preclinical secondary pharmacology resource illuminates target-adverse drug reaction associations of marketed drugs” (Nat Commun, 2023).

What was measured:
[1] = molecular target: T1, Alpha-1A adrenergic receptor (Homo sapiens, UniProt P35348); type: functional, cell-based
T1 sequence (P35348 whole entry): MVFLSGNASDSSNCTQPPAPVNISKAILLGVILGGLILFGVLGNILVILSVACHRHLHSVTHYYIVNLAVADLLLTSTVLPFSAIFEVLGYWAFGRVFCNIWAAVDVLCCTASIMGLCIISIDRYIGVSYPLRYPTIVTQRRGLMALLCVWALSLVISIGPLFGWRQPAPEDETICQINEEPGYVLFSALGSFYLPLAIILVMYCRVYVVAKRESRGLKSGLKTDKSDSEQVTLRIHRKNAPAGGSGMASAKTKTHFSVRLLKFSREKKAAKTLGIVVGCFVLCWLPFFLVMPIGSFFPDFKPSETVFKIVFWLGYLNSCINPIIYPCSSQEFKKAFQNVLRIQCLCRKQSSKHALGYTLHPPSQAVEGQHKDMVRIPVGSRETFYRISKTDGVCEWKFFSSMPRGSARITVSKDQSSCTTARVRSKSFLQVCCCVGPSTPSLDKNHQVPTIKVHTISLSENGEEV

[2] = molecular target: T2, Alpha-2C adrenergic receptor (Homo sapiens, UniProt P18825); type: functional
T2 sequence (P18825 whole entry): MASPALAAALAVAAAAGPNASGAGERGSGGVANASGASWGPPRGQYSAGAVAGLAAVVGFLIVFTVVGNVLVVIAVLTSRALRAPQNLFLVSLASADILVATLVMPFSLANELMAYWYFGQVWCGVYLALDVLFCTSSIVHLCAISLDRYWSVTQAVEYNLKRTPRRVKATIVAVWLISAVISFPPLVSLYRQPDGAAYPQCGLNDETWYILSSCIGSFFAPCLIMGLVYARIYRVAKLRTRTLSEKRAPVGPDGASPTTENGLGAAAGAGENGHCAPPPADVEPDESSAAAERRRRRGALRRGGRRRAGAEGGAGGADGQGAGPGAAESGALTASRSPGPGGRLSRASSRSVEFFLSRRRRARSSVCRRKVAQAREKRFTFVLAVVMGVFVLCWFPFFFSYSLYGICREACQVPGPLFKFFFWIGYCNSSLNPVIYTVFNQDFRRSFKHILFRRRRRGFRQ

D(1A) dopamine receptor = D(1A) dopamine receptor (Homo sapiens, UniProt P21728); type: functional, cell-based
Chain of D(1A) dopamine receptor (P21728 whole entry): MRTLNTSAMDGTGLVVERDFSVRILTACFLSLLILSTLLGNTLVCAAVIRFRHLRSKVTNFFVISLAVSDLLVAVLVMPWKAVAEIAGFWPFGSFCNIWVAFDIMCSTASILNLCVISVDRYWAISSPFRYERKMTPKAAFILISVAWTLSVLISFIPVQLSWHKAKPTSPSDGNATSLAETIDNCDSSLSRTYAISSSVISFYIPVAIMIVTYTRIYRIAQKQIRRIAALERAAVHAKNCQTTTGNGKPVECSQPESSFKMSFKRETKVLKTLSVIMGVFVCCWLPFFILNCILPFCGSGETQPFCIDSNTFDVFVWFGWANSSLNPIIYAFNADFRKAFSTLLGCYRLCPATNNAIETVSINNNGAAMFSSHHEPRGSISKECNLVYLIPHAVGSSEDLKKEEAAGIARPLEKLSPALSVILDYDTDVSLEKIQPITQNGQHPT

[3] = molecular target: T3, 5-hydroxytryptamine receptor 1A (Homo sapiens, UniProt P08908); type: functional, cell-based
T3 sequence (P08908 whole entry): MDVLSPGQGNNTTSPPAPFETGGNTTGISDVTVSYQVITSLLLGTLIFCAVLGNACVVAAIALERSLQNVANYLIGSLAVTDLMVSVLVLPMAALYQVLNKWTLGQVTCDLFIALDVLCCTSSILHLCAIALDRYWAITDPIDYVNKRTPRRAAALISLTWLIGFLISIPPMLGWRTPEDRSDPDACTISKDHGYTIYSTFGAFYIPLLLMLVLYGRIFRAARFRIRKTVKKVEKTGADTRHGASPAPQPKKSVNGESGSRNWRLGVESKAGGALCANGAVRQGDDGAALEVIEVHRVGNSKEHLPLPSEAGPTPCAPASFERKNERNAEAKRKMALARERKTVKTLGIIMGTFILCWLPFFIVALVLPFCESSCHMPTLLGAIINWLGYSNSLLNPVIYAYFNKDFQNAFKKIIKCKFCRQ

[4] = molecular target: T4, Prostaglandin G/H synthase 1 (Rattus norvegicus, UniProt Q63921); type: functional
T4 sequence (Q63921 whole entry): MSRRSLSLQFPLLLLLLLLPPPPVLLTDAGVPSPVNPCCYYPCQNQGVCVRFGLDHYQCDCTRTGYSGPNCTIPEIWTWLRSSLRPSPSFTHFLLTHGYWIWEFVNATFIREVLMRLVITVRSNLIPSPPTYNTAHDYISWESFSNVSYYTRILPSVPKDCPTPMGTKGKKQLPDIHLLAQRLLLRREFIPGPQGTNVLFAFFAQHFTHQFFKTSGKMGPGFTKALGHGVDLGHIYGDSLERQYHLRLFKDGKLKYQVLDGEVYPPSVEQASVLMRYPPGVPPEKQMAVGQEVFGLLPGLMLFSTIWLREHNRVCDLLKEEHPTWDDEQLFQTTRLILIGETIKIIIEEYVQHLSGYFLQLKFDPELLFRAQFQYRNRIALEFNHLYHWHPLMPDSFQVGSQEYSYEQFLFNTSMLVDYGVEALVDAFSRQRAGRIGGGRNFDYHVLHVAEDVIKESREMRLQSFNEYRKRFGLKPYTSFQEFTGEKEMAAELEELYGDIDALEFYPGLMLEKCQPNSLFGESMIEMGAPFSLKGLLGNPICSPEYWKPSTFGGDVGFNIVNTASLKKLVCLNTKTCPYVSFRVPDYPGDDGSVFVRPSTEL

[5] = molecular target: Sodium-dependent serotonin transporter (Homo sapiens, UniProt P31645)
Chain of Sodium-dependent serotonin transporter (P31645 whole entry): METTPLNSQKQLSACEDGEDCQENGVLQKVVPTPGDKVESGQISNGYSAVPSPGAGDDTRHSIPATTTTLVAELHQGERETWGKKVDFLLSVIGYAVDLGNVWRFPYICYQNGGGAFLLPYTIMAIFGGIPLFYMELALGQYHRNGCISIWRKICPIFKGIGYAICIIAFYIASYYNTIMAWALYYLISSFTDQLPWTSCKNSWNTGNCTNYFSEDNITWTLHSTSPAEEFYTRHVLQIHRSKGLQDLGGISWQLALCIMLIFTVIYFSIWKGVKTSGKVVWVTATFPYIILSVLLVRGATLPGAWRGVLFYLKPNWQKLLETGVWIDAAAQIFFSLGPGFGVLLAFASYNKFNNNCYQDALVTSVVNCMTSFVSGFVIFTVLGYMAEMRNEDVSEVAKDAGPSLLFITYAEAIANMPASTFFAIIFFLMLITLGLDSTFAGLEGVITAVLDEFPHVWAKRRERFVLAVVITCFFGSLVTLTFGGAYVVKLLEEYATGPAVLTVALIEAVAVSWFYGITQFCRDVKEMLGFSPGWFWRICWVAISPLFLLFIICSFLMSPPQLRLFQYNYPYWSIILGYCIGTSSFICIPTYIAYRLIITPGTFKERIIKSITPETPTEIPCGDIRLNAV
Note: assay procedure not described here.

Row | SMILES | AC50 [1] [µM] | AC50 [2] [µM] | AC50 (D(1A) dopamine receptor) [µM] | AC50 [3] [µM] | AC50 [4] [µM] | AC50 [5] [µM]
1 | CC(=O)O[C@]1(C(C)=O)CC[C@H]2[C@@H]3C=C(C)C4=CC(=O)CC[C@@H]4[C@H]3CC[C@@]21C [NOMEGESTROL ACETATE] | > 30 | > 30 | > 30 | > 30 | > 30 | > 30
2 | Cc1onc(-c2ccccc2)c1C(=O)N[C@@H]1C(=O)N2[C@@H]1SC(C)(C)[C@@H]2C(=O)O [OXACILLIN] | > 30 |  |  |  |  | > 30
3 | CCn1cc(C(=O)O)c(=O)c2cc3c(cc21)OCO3 [OXOLINIC ACID] | > 30 |  |  |  |  | > 30
4 | FC(F)(F)c1ccc(CNc2ccc(Cc3c[nH]c4ncc(Cl)cc34)cn2)cn1 [PEXIDARTINIB] | > 30 |  |  |  |  | 8
5 | Nc1ccc(C(=O)Oc2ccccc2)c(O)c1 [PHENYL AMINOSALICYLATE] | > 30 |  |  |  |  | > 30
6 | CN1CCC(=C2c3ccccc3Sc3ccccc32)CC1 [PIMETHIXENE] | > 30 |  |  |  |  | 18.3
7 | [H]/N=C(\N/C(=N/[H])Nc1ccc(Cl)cc1)NC(C)C [PROGUANIL] | > 30 |  |  |  |  | 22.8
8 | CC(CN1CC(=O)NC(=O)C1)N1CC(=O)NC(=O)C1 (stereo not drawn) [RAZOXANE] | > 30 |  |  |  |  | > 30
9 | N[C@@H](CO)C(=O)O [SERINE] | > 30 |  |  |  |  | > 30
10 | CC(C)OC(=O)CCC/C=C\C[C@@H]1[C@@H](/C=C/C(F)(F)COc2ccccc2)[C@H](O)C[C@@H]1O [TAFLUPROST] | > 30 |  |  |  |  | > 30
11 | CC[C@H]1OC(=O)[C@H](C)C(=O)[C@H](C)[C@@H](O[C@@H]2O[C@H](C)C[C@H](N(C)C)[C@H]2O)[C@](C)(OC)C[C@@H](C)C(=O)[C@H](C)[C@H]2N(CCCCn3cnc(-c4cccnc4)c3)C(=O)O[C@]12C [TELITHROMYCIN] | > 30 |  |  |  |  | > 30
12 | CC(=O)Oc1cc(C(F)(F)F)ccc1C(=O)O [TRIFLUSAL] | > 30 |  |  |  |  | > 30
